Results: the NIST ThermoML archive (doi:10.1021/je900124n)
Values joined by “and” are separate entries in the source; they are usually repeats but may differ in a detail not shown here. Equal values may be shown once.

Settings: Fluid (supercritical or subcritical phases), Buoyancy - hydrostatic balance with magnetic suspension - two sinkers

CCC [propane]
Settings | mass density
460 K, 1046.1 kPa | 12.5822 kg/m3
460 K, 1046.4 kPa | 12.585 kg/m3
460 K, 1046.5 kPa | 12.5879 kg/m3
460 K, 1830.3 kPa | 22.7747 kg/m3
460 K, 1830.7 kPa | 22.7788 kg/m3 and 22.7791 kg/m3
460 K, 1830.9 kPa | 22.7814 kg/m3
460 K, 2892.4 kPa | 37.7704 kg/m3 and 37.7706 kg/m3
460 K, 2892.5 kPa | 37.7721 kg/m3 and 37.7722 kg/m3
460 K, 2892.6 kPa | 37.7743 kg/m3
460 K, 4123 kPa | 57.2169 kg/m3
460 K, 4123.1 kPa | 57.2175 kg/m3
460 K, 4123.4 kPa | 57.2232 kg/m3
460 K, 4123.6 kPa | 57.2271 kg/m3
460 K, 4123.8 kPa | 57.2284 kg/m3
460 K, 4978.5 kPa | 72.26 kg/m3
460 K, 4978.6 kPa | 72.2622 kg/m3
460 K, 6345.6 kPa | 99.2922 kg/m3 [middle of 4 runs]
460 K, 8445 kPa | 147.718 kg/m3 and 147.719 kg/m3 and 147.717 kg/m3
460 K, 8445.1 kPa | 147.721 kg/m3
460 K, 8731.7 kPa | 154.767 kg/m3
460 K, 8731.9 kPa | 154.768 kg/m3
460 K, 8732 kPa | 154.77 kg/m3 and 154.768 kg/m3
460 K, 11420 kPa | 218.352 kg/m3 [middle of 8 runs]
460.01 K, 687.74 kPa | 8.1493 kg/m3
460.01 K, 687.75 kPa | 8.1496 kg/m3 and 8.1495 kg/m3
460.01 K, 1046.4 kPa | 12.5877 kg/m3
460.01 K, 1046.6 kPa | 12.591 kg/m3
460.01 K, 4978.7 kPa | 72.2625 kg/m3
460.01 K, 4978.8 kPa | 72.2648 kg/m3
460.01 K, 4978.9 kPa | 72.2665 kg/m3 [middle of 4 runs]
460.01 K, 8434.9 kPa | 147.459 kg/m3
460.01 K, 8435 kPa | 147.46 kg/m3
460.01 K, 8435.1 kPa | 147.462 kg/m3 and 147.464 kg/m3 and 147.461 kg/m3
460.01 K, 8435.2 kPa | 147.464 kg/m3 and 147.463 kg/m3 and 147.466 kg/m3
480 K, 716.12 kPa | 8.1077 kg/m3
480 K, 716.13 kPa | 8.1078 kg/m3 and 8.1079 kg/m3 and 8.108 kg/m3
480 K, 1038.1 kPa | 11.8882 kg/m3
480 K, 1924.9 kPa | 22.769 kg/m3 and 22.7696 kg/m3
480 K, 1925 kPa | 22.771 kg/m3
480 K, 1925.1 kPa | 22.7716 kg/m3 and 22.7708 kg/m3
480 K, 3069 kPa | 37.9021 kg/m3
480 K, 3069.2 kPa | 37.9044 kg/m3 and 37.905 kg/m3
480 K, 3069.5 kPa | 37.9086 kg/m3
480 K, 3069.6 kPa | 37.9115 kg/m3
480 K, 4376.6 kPa | 56.9392 kg/m3
480 K, 4376.8 kPa | 56.9424 kg/m3
480 K, 4377.1 kPa | 56.9487 kg/m3
480 K, 4377.2 kPa | 56.9487 kg/m3
480 K, 4377.6 kPa | 56.955 kg/m3
480 K, 5340.5 kPa | 72.2831 kg/m3 and 72.2827 kg/m3
480 K, 5340.6 kPa | 72.285 kg/m3
480 K, 6880.9 kPa | 99.2607 kg/m3 and 99.2626 kg/m3
480 K, 6881 kPa | 99.2628 kg/m3
480 K, 9330.8 kPa | 147.276 kg/m3 and 147.278 kg/m3
480 K, 9330.9 kPa | 147.278 kg/m3 and 147.275 kg/m3
480 K, 9331 kPa | 147.279 kg/m3
480 K, 9343.8 kPa | 147.548 kg/m3
480 K, 9343.9 kPa | 147.549 kg/m3 and 147.552 kg/m3
480 K, 9344 kPa | 147.551 kg/m3
480 K, 9344.1 kPa | 147.55 kg/m3
480 K, 9689.8 kPa | 154.575 kg/m3
480 K, 9690 kPa | 154.576 kg/m3
480 K, 9690.1 kPa | 154.579 kg/m3
480 K, 9690.2 kPa | 154.581 kg/m3 and 154.58 kg/m3
480 K, 13007 kPa | 218.012 kg/m3 and 218.013 kg/m3 and 218.014 kg/m3
480.01 K, 399.65 kPa | 4.4746 kg/m3 and 4.4747 kg/m3 and 4.4744 kg/m3
480.01 K, 1038.8 kPa | 11.899 kg/m3
480.01 K, 1039.1 kPa | 11.9024 kg/m3
480.01 K, 1039.3 kPa | 11.9056 kg/m3
480.01 K, 1041.9 kPa | 11.9354 kg/m3
480.01 K, 5340.5 kPa | 72.2834 kg/m3 and 72.2836 kg/m3
480.01 K, 5340.6 kPa | 72.2841 kg/m3 and 72.2848 kg/m3 and 72.2843 kg/m3
480.01 K, 6880.9 kPa | 99.2609 kg/m3 and 99.2601 kg/m3
480.01 K, 9330.9 kPa | 147.277 kg/m3
480.01 K, 9331 kPa | 147.28 kg/m3 and 147.281 kg/m3
480.01 K, 13007 kPa | 218.014 kg/m3
480.01 K, 13008 kPa | 218.016 kg/m3
500 K, 415.04 kPa | 4.4539 kg/m3 and 4.454 kg/m3
500 K, 415.05 kPa | 4.454 kg/m3
500 K, 744.3 kPa | 8.0688 kg/m3
500 K, 744.34 kPa | 8.0689 kg/m3
500 K, 1058.4 kPa | 11.5875 kg/m3 and 11.5868 kg/m3
500 K, 2016.7 kPa | 22.7375 kg/m3
500 K, 2016.8 kPa | 22.7381 kg/m3
500 K, 2016.9 kPa | 22.7385 kg/m3
500 K, 2017 kPa | 22.7394 kg/m3
500 K, 3242.8 kPa | 37.9947 kg/m3
500 K, 3243.6 kPa | 38.0051 kg/m3
500 K, 3243.7 kPa | 38.0059 kg/m3 and 38.0062 kg/m3
500 K, 3243.9 kPa | 38.0086 kg/m3
500 K, 4643.7 kPa | 56.9284 kg/m3
500 K, 4644 kPa | 56.9317 kg/m3
500 K, 4644.4 kPa | 56.9376 kg/m3
500 K, 4644.5 kPa | 56.9398 kg/m3
500 K, 4644.6 kPa | 56.941 kg/m3
500 K, 7408.7 kPa | 99.2014 kg/m3 and 99.1992 kg/m3
500 K, 7408.8 kPa | 99.1996 kg/m3 and 99.1999 kg/m3
500 K, 10218 kPa | 147.109 kg/m3 and 147.114 kg/m3
500 K, 10219 kPa | 147.115 kg/m3
500 K, 10234 kPa | 147.392 kg/m3 and 147.391 kg/m3 and 147.393 kg/m3
500 K, 10637 kPa | 154.378 kg/m3 [middle of 5 runs]
500 K, 14582 kPa | 217.649 kg/m3 and 217.645 kg/m3 and 217.644 kg/m3
500 K, 14583 kPa | 217.649 kg/m3
500.01 K, 415.04 kPa | 4.4539 kg/m3
500.01 K, 744.34 kPa | 8.069 kg/m3
500.01 K, 744.35 kPa | 8.069 kg/m3
500.01 K, 1058.3 kPa | 11.5848 kg/m3
500.01 K, 1058.7 kPa | 11.5888 kg/m3
500.01 K, 1059.3 kPa | 11.5965 kg/m3
500.01 K, 5697.7 kPa | 72.2794 kg/m3 and 72.2805 kg/m3 and 72.2784 kg/m3
500.01 K, 5697.8 kPa | 72.2813 kg/m3 [middle of 4 runs]
500.01 K, 5697.9 kPa | 72.2822 kg/m3
500.01 K, 10218 kPa | 147.112 kg/m3 and 147.116 kg/m3
500.01 K, 10219 kPa | 147.118 kg/m3 and 147.116 kg/m3
500.01 K, 14582 kPa | 217.641 kg/m3 and 217.644 kg/m3
500.01 K, 14583 kPa | 217.647 kg/m3
